Measured values reported in US11274090B2, “P300/CBP HAT inhibitors” (Constellation Pharmaceuticals, Inc., priority 2018, dated 2022).

Assays:
[1] = target: p300 HAT domain (residues 1287-1666) (Homo sapiens (Human), UniProt Q09472); experiment: p300 HAT SPA assay (scintillation proximity assay, acetylation of biotinylated H3(1-21) peptide); format: biochemical; settings: average of at least 2 replicate titrations
Outline: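 Scintillation proximity readout of acetylated biotin-H3(1-21) captured on streptavidin plates after 1.5 hr at RT; enzyme was Ni2+/anion-exchange-purified HAT domain in 20 mM Hepes pH 7.5. Inhibitor IC50s calculated from the data.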

[2] = target: full length p300 (Homo sapiens (Human), UniProt Q09472); experiment: full length p300 SPA assay; format: biochemical; settings: average of at least 2 replicate titrations, read-out: FL P300 IC50
Method: Reactions were initiated with 12.5 μL 2 μM biotinylated H3(1-21) peptide (New England Peptide) and run for 1 hr at RT, then quenched with 20 μL stop solution (200 mM Tris pH 8.0, 200 mM EDTA, 2M NaCl, 160 μM anacardic acid). 35 μL of the reaction volume was transferred to a 384-well streptavidin FlashPlate (PerkinElmer) using a Bravo liquid handler (Velocity 11) and incubated for 1.5 hr at RT. Plates were aspirated, washed with 95 μL wash buffer (15 mM Tris pH 8.5, 0.069 μM Brij-35), aspirated, sealed, and scintillation counts read on a Topcount (PerkinElmer). Data were analyzed in Genedata to determine inhibitor IC50 values.
The full length p300 SPA assay was run following the same protocol as p300 HAT SPA assay, but used 6 nM purified full length p300 (purchased from Active Motif) in place of the purified p300-HAT domain.

Sequence of p300 HAT domain (residues 1287-1666) (Q09472 1287-1666): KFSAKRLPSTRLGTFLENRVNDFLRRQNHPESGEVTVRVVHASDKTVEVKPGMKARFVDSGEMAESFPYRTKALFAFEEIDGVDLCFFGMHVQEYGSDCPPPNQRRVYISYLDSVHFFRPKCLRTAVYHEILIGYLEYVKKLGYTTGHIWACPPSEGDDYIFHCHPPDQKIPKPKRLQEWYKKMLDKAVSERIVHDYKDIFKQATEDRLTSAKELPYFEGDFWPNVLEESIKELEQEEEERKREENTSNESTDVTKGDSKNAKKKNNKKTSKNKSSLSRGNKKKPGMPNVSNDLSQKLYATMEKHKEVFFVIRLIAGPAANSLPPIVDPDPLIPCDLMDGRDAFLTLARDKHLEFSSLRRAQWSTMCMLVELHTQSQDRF
Sequence of full length p300 (Q09472 whole entry): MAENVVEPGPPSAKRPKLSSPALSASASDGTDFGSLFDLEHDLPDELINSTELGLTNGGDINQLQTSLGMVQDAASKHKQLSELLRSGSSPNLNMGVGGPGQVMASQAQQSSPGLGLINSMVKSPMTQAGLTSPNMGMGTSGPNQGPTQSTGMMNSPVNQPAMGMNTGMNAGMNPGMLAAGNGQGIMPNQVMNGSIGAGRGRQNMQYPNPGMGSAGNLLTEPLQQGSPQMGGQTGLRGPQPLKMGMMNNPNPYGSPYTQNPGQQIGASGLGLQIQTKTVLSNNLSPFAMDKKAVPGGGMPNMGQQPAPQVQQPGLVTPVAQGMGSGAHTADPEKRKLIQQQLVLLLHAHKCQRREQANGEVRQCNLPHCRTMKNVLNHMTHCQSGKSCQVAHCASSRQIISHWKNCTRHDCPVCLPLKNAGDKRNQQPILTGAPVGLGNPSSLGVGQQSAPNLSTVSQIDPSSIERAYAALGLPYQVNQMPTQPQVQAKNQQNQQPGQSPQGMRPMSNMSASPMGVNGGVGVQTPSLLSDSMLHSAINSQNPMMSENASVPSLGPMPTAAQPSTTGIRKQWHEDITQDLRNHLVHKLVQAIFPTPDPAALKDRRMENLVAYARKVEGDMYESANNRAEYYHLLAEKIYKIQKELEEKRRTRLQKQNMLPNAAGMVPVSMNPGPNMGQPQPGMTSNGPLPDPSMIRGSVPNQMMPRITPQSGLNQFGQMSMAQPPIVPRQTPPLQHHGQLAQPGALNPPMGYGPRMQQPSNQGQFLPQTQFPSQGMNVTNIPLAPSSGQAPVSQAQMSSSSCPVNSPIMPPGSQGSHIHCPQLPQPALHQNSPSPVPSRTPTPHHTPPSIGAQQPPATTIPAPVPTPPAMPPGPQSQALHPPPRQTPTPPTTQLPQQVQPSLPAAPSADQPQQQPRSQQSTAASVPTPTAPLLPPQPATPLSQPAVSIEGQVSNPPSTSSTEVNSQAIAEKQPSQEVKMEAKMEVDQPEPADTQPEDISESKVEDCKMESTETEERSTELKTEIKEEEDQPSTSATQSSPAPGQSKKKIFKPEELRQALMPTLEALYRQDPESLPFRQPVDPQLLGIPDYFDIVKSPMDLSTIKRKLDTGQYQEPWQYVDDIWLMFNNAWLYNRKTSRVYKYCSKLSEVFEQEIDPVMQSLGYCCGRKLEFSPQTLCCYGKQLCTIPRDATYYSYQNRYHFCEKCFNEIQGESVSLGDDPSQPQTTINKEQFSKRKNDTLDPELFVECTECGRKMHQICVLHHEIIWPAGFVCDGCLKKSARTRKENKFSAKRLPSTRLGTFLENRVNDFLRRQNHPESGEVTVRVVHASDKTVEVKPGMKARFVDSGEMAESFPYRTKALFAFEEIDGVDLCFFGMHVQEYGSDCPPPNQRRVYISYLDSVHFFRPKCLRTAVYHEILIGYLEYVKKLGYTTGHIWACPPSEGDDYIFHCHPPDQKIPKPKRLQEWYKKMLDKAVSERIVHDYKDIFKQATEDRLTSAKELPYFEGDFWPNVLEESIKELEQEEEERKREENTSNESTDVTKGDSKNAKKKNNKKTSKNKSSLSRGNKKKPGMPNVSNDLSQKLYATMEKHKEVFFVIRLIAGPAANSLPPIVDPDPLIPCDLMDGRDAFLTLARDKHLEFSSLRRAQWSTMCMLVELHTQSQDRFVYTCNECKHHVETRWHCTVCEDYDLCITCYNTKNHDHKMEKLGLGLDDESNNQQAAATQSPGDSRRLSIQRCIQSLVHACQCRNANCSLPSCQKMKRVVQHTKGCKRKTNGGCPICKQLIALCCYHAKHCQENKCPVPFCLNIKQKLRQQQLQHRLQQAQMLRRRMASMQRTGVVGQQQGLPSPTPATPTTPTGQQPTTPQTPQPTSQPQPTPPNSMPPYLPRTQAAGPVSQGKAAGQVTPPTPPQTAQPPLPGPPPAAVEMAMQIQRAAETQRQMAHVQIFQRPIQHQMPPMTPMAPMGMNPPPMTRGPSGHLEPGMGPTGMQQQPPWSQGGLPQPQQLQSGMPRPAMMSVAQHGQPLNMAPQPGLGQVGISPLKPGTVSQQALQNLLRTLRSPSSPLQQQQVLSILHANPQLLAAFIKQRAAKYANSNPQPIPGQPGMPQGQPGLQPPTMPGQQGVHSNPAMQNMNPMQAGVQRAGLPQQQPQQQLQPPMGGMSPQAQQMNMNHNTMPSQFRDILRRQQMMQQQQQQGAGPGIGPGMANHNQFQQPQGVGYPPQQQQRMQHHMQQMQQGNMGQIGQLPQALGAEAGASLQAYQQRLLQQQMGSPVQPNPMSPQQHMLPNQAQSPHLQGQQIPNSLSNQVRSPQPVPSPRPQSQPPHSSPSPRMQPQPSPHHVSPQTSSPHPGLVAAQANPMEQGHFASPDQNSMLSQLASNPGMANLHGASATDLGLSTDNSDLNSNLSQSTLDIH

| Molecule | IC50 [1] | IC50 [2] |
| --- | --- | --- |
| (R, S)- and (S, S)-2-((2- (4- cyanophenyl)propyl)ami- no)-N-(5-(1,3-dimethyl- 1H-pyrazol-4-yl)pyridin- 2-yl)-2-phenylacetamide [113 Isomer 2] | 10.2 nM | 0.74 nM |
| CC(CNC(C(=O)Nc1ccc(-c2cnn(C)n2)cn1)c1ccccc1)c1ccc(C#N)cc1 (single isomer, unassigned) [98 Isomer 2] | 6.59 nM | 1 nM |
| Cn1cc(-c2cnc(NC(=O)C(NCCc3ccc(C#N)cc3)c3ccccc3)c(F)c2)cn1 (single isomer, unassigned) [75 Isomer 2] | > 2000 nM | 387 nM |
| Cc1cnn(-c2ccc(NC(=O)C(NCC(C)c3ccc(C#N)cc3)c3ccccc3)nc2)c1 (single isomer, unassigned) [62 Isomer 1] | > 2000 nM | 224 nM |
| CC(CNC(C(=O)Nc1ccc(-c2cnn(C)c2)cn1)c1ccccc1)c1ccc(C#N)c(F)c1 (single isomer, unassigned) [91 Isomer 2] | 6.4 nM | 0.75 nM |
| Cc1cn(-c2ccc(NC(=O)C(NCCc3ccc(C#N)cc3)c3ccccc3)nc2)cn1 (single isomer, unassigned) [28 Isomer 2] | 2830 nM | 24 nM |
| C[C@H](CNC(C(=O)Nc1ccc(-c2cnn(C)c(=O)c2)cn1)c1ccccc1)c1ccc(C#N)cc1 (single isomer, unassigned) [139 Isomer 1] | 26 nM | < 3.24 nM |
| COC1(C)CCN(c2ccc(NC(=O)C(NCCc3ccc(C#N)cc3)c3ccccc3)nc2)CC1 (single isomer, unassigned) [53 Isomer 2] | > 2000 nM | > 1000 nM |
| COC1CN(c2ccc(NC(=O)C(NCCc3ccc(C#N)cc3)c3ccccc3)nc2)C1 (single isomer, unassigned) [31 Isomer 1] | 71.4 nM | 2.57 nM |
| Cn1cnc(-c2ccc(NC(=O)C(NCCc3ccc(C#N)cc3)c3ccccc3)nc2)c1 (single isomer, unassigned) [13 Isomer 1] | > 5000 nM | 273 nM |
| Cc1ccn(-c2ccc(NC(=O)C(NCC(C)c3ccc(C#N)cc3)c3ccccc3)nc2)n1 (single isomer, unassigned) [61 Isomer 3] | 31.5 nM | < 2 nM |
| Cn1cc(-c2cccc(NC(=O)C(NCCc3ccc(C#N)cc3)c3ccccc3)n2)cn1 (single isomer, unassigned) [123 Isomer 2] | > 2000 nM | 13500 nM |
| Cc1ccn(-c2ccc(NC(=O)C(NCC(C)c3ccc(C#N)cc3)c3ccccc3)nc2)n1 (single isomer, unassigned) [61 Isomer 2] | > 5000 nM | 123 nM |
| CC(=O)N1CCN(c2ccc(NC(=O)C(NCCc3ccc(C#N)cc3)c3ccccc3)nc2)CC1 (single isomer, unassigned) [72 Isomer 1] | 85.2 nM | 4.13 nM |
| C[C@H](CNC(C(=O)Nc1ccc(C2CC(=O)N(C)C2)cn1)c1ccccc1)c1ccc(C#N)cc1 (single isomer, unassigned) [109 Isomer 1] | > 2000 nM | – |
| CN1CCN(c2ccc(NC(=O)[C@@H](NCCc3ccc(Cl)cc3)c3ccccc3)cc2)CC1 (single isomer, unassigned) [17 Isomer 2] | > 5000 nM | – |
| N#Cc1ccc(CCNC(C(=O)Nc2ccc(N3CCC(F)(F)C3)cn2)c2ccccc2)cc1 (single isomer, unassigned) [77 Isomer 1] | 39.4 nM | – |
| CC1CN(C)C(=O)CN1c1ccc(NC(=O)C(NC[C@@H](C)c2ccc(C#N)cc2)c2ccccc2)nc1 (single isomer, unassigned) [125 Isomer 2] | > 2000 nM | – |
| COC1CN(c2ccc(NC(=O)C(NCC(C)c3ccc(C#N)cc3)c3ccccc3)nc2)C1 (single isomer, unassigned) [32 Isomer 3] | > 2000 nM | – |
| CC(CNC(C(=O)Nc1ccc(-c2cnn(C)c2)cn1)c1cnn(C)c1)c1ccc(C#N)cc1 (single isomer, unassigned) [127 Isomer 3] | > 2000 nM | – |
| Cn1cc(-c2ccc(NC(=O)C(NCCc3ccc(C#N)cc3)c3cccc(C#N)c3)nc2)cn1 (single isomer, unassigned) [116 Isomer 2] | > 2000 nM | – |
